Assay results published in US20230348421A1, “5-HT2A RECEPTOR INHIBITOR OR INVERSE AGONIST, PREPARATION METHOD THEREFOR, AND APPLICATION THEREOF” (GENEORA PHARMA (SHIJIAZHUANG) CO., LTD., priority 2020, published 2023).
Where two headings read alike, the source gives them in different places.

What was measured:
hERG potassium channels = hERG potassium channels (Homo sapiens (Human), UniProt Q12809); test: hERG inhibitory activity, whole-cell patch clamp in CHO-hERG cells
Protocol: • Name: Dimethyl sulfoxide (DMSO)
• Species & strains: CHO-hERG cell lines (Chinese hamster ovary cells stably expressing hERG channels) • Culture medium: 90% F12, 10% fetal bovine serum, 100 μg/mL G418 and 100 μg/mL hygromycin B • Culture conditions: 5% CO2, 37° C. incubator • Freezing conditions: Liquid nitrogen
Digestion was performed at room temperature for 3-5 min. The digestion solution was pipetted, and the cells were resuspended in extracellular fluid and transferred to an experimental dish for electrophysiological recording for later use.
On the day of the test, the compound was diluted with DMSO to an intermediate concentration. 10 μL of compound with the intermediate concentration was taken, transferred to 4990 μL of extracellular fluid, and subjected to 500-fold dilution to obtain a final concentration to be tested.
CHO (Chinese Hamster Ovary) cells stably expressing hERG potassium channels were taken, and hERG potassium channel currents were recorded at room temperature by means of a whole-cell patch-clamp technique. A glass microelectrode was formed by pulling a glass electrode blank (BF150-86-10, Sutter) with a glass microelectrode puller. The tip resistance was about 2-5 MΩ after perfusion of a pippette solution. The glass microelectrode could be connected to a patch clamp amplifier by inserting the glass microelectrode into an amplifier probe. Clamping voltages and data recording were controlled and recorded by a computer with pClamp 10 software, with a sampling frequency of 10 kHz and a filtering frequency of 2 kHz. After the whole-cell recording was obtained, the cells were clamped at −80 mV, and the step voltage evoking hERG potassium current (I hERG) was changed from −80 mV to +20 mV by giving a 2 s depolarization voltage and then repolarized to −50 mV for 1 s, and returned to −80 mV. Such voltage stimulation was given every 10 s, and the administration process was started after it was determined that the hERG potassium currents were stable (1 min). The compound at each test concentration was given at least 1 min, and at least 2 cells (n≥2) were tested for each concentration.
Data analysis was performed by means of pClamp 10 and GraphPad Prism 5.0 software.
The formula for calculating the degree of inhibition of different compound concentrations on hERG potassium currents (the hERG tail current peak value evoked at −50 mV) was:
Y=Bottom+(Top−Bottom)/(1+10^((LogIC50−X)*HillSlope))
wherein X is a Log value of a test concentration of a test sample, Y is the inhibition percentage at a corresponding concentration, and Bottom and Top are the minimum inhibition percentage and the maximum inhibition percentage, respectively.

5-HT2A receptor [1] = biological target: T1, 5-HT2A receptor (Homo sapiens (Human), UniProt P28223); test: Test for 5-HT2A antagonistic activity (calcium ion antagonism, FLIPR, CHO-K1/5-HT2A cells); assay type: cell-based; settings: 100 nM a-methyl-5-HT, Ca2+ signal
T1 sequence (P28223 whole entry): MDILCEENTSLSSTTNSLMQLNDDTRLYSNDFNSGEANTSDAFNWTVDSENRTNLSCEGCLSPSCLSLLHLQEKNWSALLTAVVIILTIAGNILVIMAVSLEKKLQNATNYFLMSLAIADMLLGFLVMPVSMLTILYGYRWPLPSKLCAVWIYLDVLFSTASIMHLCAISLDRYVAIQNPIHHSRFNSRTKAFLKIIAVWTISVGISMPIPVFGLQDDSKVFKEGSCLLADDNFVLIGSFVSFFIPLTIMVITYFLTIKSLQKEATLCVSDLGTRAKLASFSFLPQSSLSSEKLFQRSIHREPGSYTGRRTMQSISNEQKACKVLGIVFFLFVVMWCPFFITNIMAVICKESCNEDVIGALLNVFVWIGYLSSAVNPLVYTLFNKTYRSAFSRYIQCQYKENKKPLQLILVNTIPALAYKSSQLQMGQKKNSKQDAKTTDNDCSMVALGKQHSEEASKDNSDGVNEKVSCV
Protocol: • Cell lines: CHO-K1/5-HT2A (Chempartner) • Cell culture medium: DMEM/F12+10% FBS (purchased from GBICO) • Cell culture plate: 384-well Assay Plate (purchased from Corning) • Detection kit: FLIPR® Calcium 4 Assay Kit (purchased from Molecular Devices)
After that, centrifugation was performed to remove the culture medium in the cell culture plate. Dye was added, and the cells were incubated in a 37° C., 5% CO2 incubator for another 1 h. The cell culture plate was placed on the FLIPR. A compound to be tested was added, and the Ca^2+ signal was detected, wherein the compound to be tested was subjected to 3-fold gradient dilution with PBS to obtain 10 concentrations, with the highest concentration of 10 uM, and double replicate wells were set up. […] In order to determine the test stability, risperidone was used as a positive control. The data were processed with GraphPad Prism 7.0 to obtain a cell inhibition rate curve, and the IC50 was calculated.
Inhibition rate (%)=100%−[(signal value of the compound to be tested−signal value of the test solution)/(the maximum signal value−the signal value of the test solution)]×100%

5-HT2A receptor [2] = biological target: T1, 5-HT2A receptor; test: Screening for 5-HT2A inverse agonistic activity (NIH3T3-5-HT2A R cells, Bright-Glo luciferase, 120 h); assay type: cell-based; settings: NIH3T3-5HT2AR cells, cell inhibition rate
Protocol: • Cell lines: Adherent cells NIH3T3-5-HT2A R • Cell culture medium: DMEM+10% FBS (purchased from GBICO) • Cell culture plate: White-wall clear-bottom 96-well plate (purchased from Perkin Elmer) • Detection kit: Bright-Glo™ Luciferase (purchased from Promega) • Detection instrument: BioTek multifunctional microplate reader
NIH3T3-5HT2AR cells in the logarithmic growth phase were seeded into a white-wall clear-bottom 96-well plate at a density of 1000 cells per well, and cultured overnight in a 37° C., 5% CO2 incubator. […] On the sixth day, a Bright-Glo™ Luciferase reagent with a volume equal to that of cell sap was added to the cells, and the cells were incubated at room temperature in the dark for 20 min. […] The data was processed with GraphPad Prism 7.0 to obtain a cell inhibition rate curve, and the IC50 was calculated.
Cell inhibition rate (%)=[100−(Lum test drug−Lum culture solution)/(Lum cell control−Lum culture solution)×100]%

[3] = read-out: hERG inhibitory activity IC50, CHO-hERG cells, whole-cell patch clamp, tail current at -50 mV

Sequence of hERG potassium channels (Q12809 whole entry): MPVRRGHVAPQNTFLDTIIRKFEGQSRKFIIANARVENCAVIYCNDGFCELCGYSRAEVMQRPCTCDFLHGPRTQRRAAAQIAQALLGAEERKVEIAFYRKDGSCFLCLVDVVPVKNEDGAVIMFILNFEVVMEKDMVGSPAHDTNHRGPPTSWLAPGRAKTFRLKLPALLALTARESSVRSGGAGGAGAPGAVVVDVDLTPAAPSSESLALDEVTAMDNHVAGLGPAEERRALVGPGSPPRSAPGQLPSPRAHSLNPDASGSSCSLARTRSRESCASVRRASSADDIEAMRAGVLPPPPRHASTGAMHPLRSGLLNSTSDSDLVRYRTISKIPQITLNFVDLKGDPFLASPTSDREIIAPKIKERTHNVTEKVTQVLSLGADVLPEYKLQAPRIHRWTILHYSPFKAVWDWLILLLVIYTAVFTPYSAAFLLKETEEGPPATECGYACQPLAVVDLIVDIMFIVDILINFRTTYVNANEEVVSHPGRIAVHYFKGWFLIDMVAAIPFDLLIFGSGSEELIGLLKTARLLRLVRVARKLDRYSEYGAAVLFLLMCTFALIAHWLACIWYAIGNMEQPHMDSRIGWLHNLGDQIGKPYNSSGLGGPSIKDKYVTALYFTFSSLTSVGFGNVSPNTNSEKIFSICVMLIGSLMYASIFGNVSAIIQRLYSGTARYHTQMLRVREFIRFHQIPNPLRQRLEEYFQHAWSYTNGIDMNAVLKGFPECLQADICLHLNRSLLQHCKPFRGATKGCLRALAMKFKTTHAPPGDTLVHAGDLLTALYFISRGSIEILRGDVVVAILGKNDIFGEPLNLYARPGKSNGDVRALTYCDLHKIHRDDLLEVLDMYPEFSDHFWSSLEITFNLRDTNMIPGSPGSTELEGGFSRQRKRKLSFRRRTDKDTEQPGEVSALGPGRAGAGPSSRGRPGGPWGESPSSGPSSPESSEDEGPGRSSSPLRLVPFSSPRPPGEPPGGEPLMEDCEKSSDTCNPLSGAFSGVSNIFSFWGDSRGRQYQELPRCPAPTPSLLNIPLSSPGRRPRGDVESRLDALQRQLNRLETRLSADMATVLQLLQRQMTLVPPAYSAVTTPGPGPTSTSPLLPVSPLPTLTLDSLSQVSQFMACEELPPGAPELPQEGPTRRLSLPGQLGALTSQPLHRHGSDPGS

| Structure (SMILES) | IC50 (hERG potassium channels; [3]) | IC50 (5-HT2A receptor [1]) | IC50 (5-HT2A receptor [2]) | IC50 (hERG potassium channels) |
| --- | --- | --- | --- | --- |
| CC(C)COc1ccc(CNC(=O)N(Cc2ccc(F)cn2)C2CCN(C)CC2)cc1 [Compound 1] | 410 nM | 8.64 nM | 22.8 nM |  |
| CN1CCC(N(Cc2ccc(F)cn2)C(=O)NCc2ccc(O)cc2)CC1 [Compound 3] | > 10000 nM | 11.6 nM |  |  |
| CC(C)COc1ccc(CNC(=O)N(Cc2ncc(F)cn2)C2CCN(C)CC2)cc1 [Compound 13] | 1300 nM | 1.92 nM |  |  |
| CC(C)COc1ccc(CNC(=O)N(CCCN(C)C)Cc2ccc(F)cc2)cc1 [Compound 14] |  | 2.17 nM |  |  |
| CN1CCC(N(Cc2ccc(F)cn2)C(=O)NCc2ccc(OCCCF)cc2)CC1 [Compound 17] |  |  |  | 1550 nM |
| CN1CCC(N(Cc2ccc(F)cn2)C(=O)NCc2ccc(OC(C)(C)C)cc2)CC1 [Compound 18] | 850 nM | 5.75 nM | 1.12 nM |  |
| CC(C)COc1ccc(CNC(=O)N(Cc2ccc(F)cc2)C2CCN(C)CC2)nc1 [Compound 19] | 480 nM | 6.94 nM | 49.9 nM |  |
| CC(C)COc1ccc(CNC(=O)N(Cc2ccc(F)cc2)C2CCN(C)CC2)cn1 [Compound 20] | 680 nM | 9.14 nM |  |  |
| CC(C)OCc1ccc(CNC(=O)N(Cc2ccc(F)cc2)C2CCN(C)CC2)cc1 [Compound 21] | 910 nM | 2.1 nM | 34.1 nM |  |
| CC1(C)Cc2cc(CNC(=O)N(Cc3ccc(F)cn3)C3CCNCC3)ccc2O1 [Compound 23] | > 10000 nM | 6.02 nM | 5.64 nM |  |
| CN1CCC(N(Cc2ccc(F)cn2)C(=O)NCc2ccc3c(c2)CC(C)(C)O3)CC1 [Compound 24] | 3610 nM | 3.49 nM | 2.54 nM |  |
| CC(C)C(O)Cc1ccc(CNC(=O)N(Cc2ccc(F)cc2)C2CCN(C)CC2)cc1 (stereo not drawn) [Compound 25] | 1030 nM | 6.73 nM | 16.9 nM |  |
| CN1CCC(N(Cc2ccc(F)cn2)C(=O)NCc2ccc(OCC(F)(F)F)c(F)c2)CC1 [Compound 26] | 530 nM | 6.86 nM | 9.79 nM |  |
| CN1CCC(N(Cc2ccc(F)cc2)C(=O)NCc2ccc3c(c2)CC(C)(C)O3)CC1 [Compound 31] | 1850 nM | 17.4 nM | 30 nM |  |
| CC(C)OCc1ccc(CNC(=O)N(Cc2ccc(F)cn2)C2CCN(C)CC2)cc1 [Compound 37] | 3990 nM | 2.05 nM | 42.8 nM |  |
| CN1CCC(N(Cc2ccc(F)cn2)C(=O)NCc2ccc(OC(F)(F)C(F)(F)F)cc2)CC1 [Compound 38] |  |  | 10 nM |  |
| CC(C)C1Cc2cc(CNC(=O)N(Cc3ccc(F)cn3)C3CCN(C)CC3)ccc2O1 (stereo not drawn) [Compound 41] | 790 nM | 9.98 nM | 4.29 nM |  |
| CN1CCC(N(Cc2ccc(F)cn2)C(=O)NCc2ccc(OC(CF)CF)cc2)CC1 [Compound 45] | 5500 nM | 2.42 nM | 7.04 nM |  |
| CN1CCC(N(Cc2ccc(F)cn2)C(=O)NCc2ccc3c(c2)CCO3)CC1 [Compound 46] | 10400 nM | 4.15 nM | 11.1 nM |  |
| CN1CCC(N(Cc2ccc(F)cn2)C(=O)NCc2ccc(OCC(C)(C)F)cc2)CC1 [Compound 47] | 1390 nM | 3.13 nM | 9.22 nM |  |
| CCN1CCC(N(Cc2ccc(F)cn2)C(=O)NCc2ccc3c(c2)CC(C)(C)O3)CC1 [Compound 48] | 2400 nM | 3.14 nM | 22.5 nM |  |
| CCOc1ccc(CNC(=O)N(Cc2ccc(F)cn2)C2CCN(C)CC2)cc1 [Compound 49] | 2430 nM | 4.1 nM | 7.3 nM |  |
| CC(C)c1cc2cc(CNC(=O)N(Cc3ccc(F)cn3)C3CCN(C)CC3)ccc2o1 [Compound 50] | 550 nM | 20.9 nM |  |  |
| CC(C)CCc1ccc(CNC(=O)N(Cc2ccc(F)cn2)C2CCN(C)CC2)cc1 [Compound 52] |  |  | 42.7 nM |  |
| CN1CCC(N(Cc2ccc(F)cn2)C(=O)NCc2ccc(OCCC(F)(F)F)cc2)CC1 [Compound 55] | 690 nM | 4.7 nM | 2.23 nM |  |

| Structure (SMILES) | IC50 (hERG potassium channels; [3]) | IC50 (5-HT2A receptor [1]) | IC50 (5-HT2A receptor [2]) | IC50 (hERG potassium channels) |
| --- | --- | --- | --- | --- |
| CN1CCC(N(Cc2ccc(F)cc2)C(=O)NCc2ccc(OCCF)cc2)CC1 [Compound 56] |  | 5.77 nM | 9.9 nM |  |
| CN1CCC(N(Cc2ccc(F)cc2)C(=O)NCc2ccc(OCC(F)F)cc2)CC1 [Compound 57] |  | 6.41 nM | 6.83 nM |  |
| CN1CCC(N(Cc2ccc(F)cn2)C(=O)NCc2ccc(OCCF)cc2)CC1 [Compound 60] | > 10000 nM | 2.11 nM | 16.4 nM |  |
| CN1CCC(N(Cc2ncc(F)cc2F)C(=O)NCc2ccc3c(c2)CC(C)(C)O3)CC1 [Compound 61] | 2550 nM | 3.32 nM | 31.2 nM |  |
| CN1CCC(N(Cc2ccc(F)cn2)C(=O)NCc2ccc(OCCCCF)cc2)CC1 [Compound 62] | 1430 nM | 2.35 nM | 32.8 nM |  |
| CC(C)COc1ccc(CNC(=O)N(Cc2ccc(F)cn2)C2CCN(CC3CCCCC3)CC2)cc1 [Compound 63] |  |  | 20.8 nM |  |
| CN1CCC(N(Cc2ccc(F)cc2)C(=O)NCc2ccc(OCC(F)(F)F)cc2)CC1 [Compound 65] | 670 nM | 7.98 nM | 18.4 nM |  |
| CCN1CCC(N(Cc2ccc(F)cn2)C(=O)NCc2ccc(OCC(F)(F)F)cc2)CC1 [Compound 70] | 500 nM | 8.09 nM | 12.3 nM |  |
| CN1CCC(N(Cc2ccc(F)cn2)C(=O)NCc2cc(Cl)c3c(c2)CC(C)(C)O3)CC1 [Compound 71] | 3320 nM | 9.52 nM |  |  |
| CN1CCC(N(Cc2ccc(F)cc2F)C(=O)NCc2ccc(OCC(F)F)cc2)CC1 [Compound 74] |  | 8.95 nM |  |  |
| CN1CCC(N(Cc2ccc(F)cc2F)C(=O)NCc2ccc(OCCF)cc2)CC1 [Compound 75] |  | 8.35 nM | 14.4 nM |  |
| CN1CCC(N(Cc2ccc(F)cc2F)C(=O)NCc2ccc3c(c2)CC(C)(C)O3)CC1 [Compound 76] |  | 20.7 nM |  |  |
| CN1CCC(N(Cc2ccc(F)cn2)C(=O)NCc2cc(Br)c3c(c2)CC(C)(C)O3)CC1 [Compound 77] |  | 6.59 nM | 6.44 nM |  |
| CN1CCC(N(Cc2ccc(F)cn2)C(=O)NCc2ccc(OCC(F)F)cc2)CC1 [Compound 78] | 1740 nM | 2.17 nM | 6.01 nM |  |
| CN1CCC(N(Cc2ncc(F)cc2F)C(=O)NCc2ccc(OC(C)(C)C)cc2)CC1 [Compound 81] | 680 nM | 2.78 nM | 30.1 nM |  |
| CN1CCC(N(Cc2ccc(F)cn2)C(=O)NCc2ccc(OCCCC(F)(F)F)cc2)CC1 [Compound 82] | 500 nM | 3.78 nM | 1.95 nM |  |
| CC(C)COc1ccc(CNC(=O)N(Cc2ccc(F)nn2)C2CCN(C)CC2)cc1 [Compound 91] | 580 nM | 14.7 nM |  |  |
| CN1CCC(N(Cc2ccc(F)cn2)C(=O)NCc2ccc(OCCC(F)F)cc2)CC1 [Compound 92] |  | 4.64 nM | 6.54 nM |  |
| CN1CCC(N(Cc2ncc(F)cc2F)C(=O)NCc2ccc(OCCC(F)F)cc2)CC1 [Compound 93] |  | 4.26 nM | 10.6 nM |  |
| CN1CCC(N(Cc2ccc(F)cn2)C(=O)NCc2ccc(OCCCC(F)F)cc2)CC1 [Compound 94] |  | 4.29 nM | 7.59 nM |  |
| CN1CCC(N(Cc2ncc(F)cc2F)C(=O)NCc2ccc(OCCCC(F)F)cc2)CC1 [Compound 95] |  | 5.13 nM | 27.9 nM |  |
| CC(C)COc1ccc(CNC(=O)N(Cc2ccc(F)cn2)C2CCN(C)CC2)nc1 [Compound 96] |  | 11.4 nM | 26.4 nM |  |
| CN1CCC(N(Cc2ccc(F)cn2)C(=O)NCc2ccc3c(c2)CCC(C)(C)O3)CC1 [Compound 98] | 1460 nM | 21.2 nM |  |  |
| CN1CCC(N(Cc2ccc(F)cn2)C(=O)NCc2ccc3c(c2)C=CC(C)(C)O3)CC1 [Compound 99] | 650 nM | 17.3 nM | 33.3 nM |  |
